Source: patent US20220144815A1, “1,3,4-OXADIAZOLES AND THEIR DERIVATIVES AS NEW ANTIFUNGAL AGENTS” (Bayer Aktiengesellschaft, priority 2018, published 2022)
Where two headings read alike, the source gives them in different places.

Columns and labels:
Alternaria brassicae = assay: Example E: in vivo preventive test (cabbage); settings: 144 h, 500 ppm of tested compound, preventive spray, evaluated 6 days after inoculation, read-out: efficacy
Procedure: Solvent: 5% by volume of dimethyl sulfoxide • 10% by volume of acetone Emulsifier: 1 μL of Tween® 80 per mg of active ingredient The tested compounds were made soluble and homogenized in a mixture of Dimethyl sulfoxide/Acetone/Tween® 80 and then diluted in water to the desired concentration. The young plants of cabbage were treated by spraying the tested compound prepared as described above. Control plants were treated only with an aqueous solution of Acetone/Dimethyl sulfoxide/Tween® 80. After 24 hours, the plants were contaminated by spraying the leaves with an aqueous suspension of Alternaria brassicae spores. The contaminated cabbage plants were incubated for 6 days at 20° C. and at 100% relative humidity. The test was evaluated 6 days after the inoculation. 0% means an efficacy which corresponds to that of the control plants while an efficacy of 100% means that no disease was observed.

Botrytis cinerea = assay: Example C: in vivo preventive test (grey mould) on gherkin or cabbage; settings: 500 ppm of active ingredient, preventive spray, evaluated 4 to 5 days after inoculation, read-out: efficacy
Procedure: Solvent: 5% by volume of dimethyl sulfoxide • 10% by volume of acetone Emulsifier: 1 μl of Tween® 80 per mg of active ingredient The tested compounds were made soluble and homogenized in a mixture of dimethyl sulfoxide/acetone/Tween® 80 and then diluted in water to the desired concentration. The young plants of gherkin or cabbage were treated by spraying the tested compound prepared as described above. Control plants were treated only with an aqueous solution of acetone/dimethyl sulfoxide/Tween® 80. After 24 hours, the plants were contaminated by spraying the leaves with an aqueous suspension of Botrytis cinerea spores. The contaminated gherkin plants were incubated for 4 to 5 days at 17° C. and at 90% relative humidity. The contaminated cabbage plants were incubated for 4 to 5 days at 20° C. and at 100% relative humidity. The test was evaluated 4 to 5 days after the inoculation. 0% means an efficacy which corresponds to that of the control plants while an efficacy of 100% means that no disease was observed.

[1] = Log P by HPLC on reversed phase columns, method [a] (EEC directive 79/831 Annex V.A8); type: physicochemical; settings: reversed phase HPLC column
How it was run: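 Reversed-phase HPLC with LC-UV detection per EEC directive 79/831 Annex V.A8, acidic eluent of 0.1% formic acid in water and acetonitrile, linear gradient 10% to 95% acetonitrile. Log P derived from retention times, calibrated against straight-chain alkan-2-ones (C3–C16) by linear interpolation.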

[2] = tested on: Colletotrichum lindemuthianum; assay: Example B: in vitro cell test, spore germination and mycelium growth in liquid culture; type: cell-based; settings: 144 h, 20 ppm of tested compound, 6 days incubation, read-out: efficacy (inhibition of fungal growth)
How it was run: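 Compounds in DMSO (final ≤1%) added to glucose/peptone/yeast extract liquid medium containing C. lindemuthianum spores. After 6 days incubation, mycelium growth measured spectrometrically; inhibition calculated from absorbance versus compound-free control wells.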

Puccinia recondita = assay: Example D: in vivo preventive test (brown rust on wheat); settings: 264 h, 500 ppm of tested compound, preventive spray, evaluated 11 days after inoculation, read-out: efficacy
Procedure: Solvent: 5% by volume of dimethyl sulfoxide • 10% by volume of acetone Emulsifier: 1 μL of Tween® 80 per mg of active ingredient The tested compounds were made soluble and homogenized in a mixture of dimethyl sulfoxide/acetone/Tween® 80 and then diluted in water to the desired concentration. The young plants of wheat were treated by spraying the tested compound prepared as described above. Control plants were treated only with an aqueous solution of acetone/dimethyl sulfoxide/Tween® 80. After 24 hours, the plants were contaminated by spraying the leaves with an aqueous suspension of Puccinia recondita spores. The contaminated wheat plants were incubated for 24 hours at 20° C. and at 100% relative humidity and then for 10 days at 20° C. and at 70-80% relative humidity. The test was evaluated 11 days after the inoculation. 0% means an efficacy which corresponds to that of the control plants while an efficacy of 100% means that no disease was observed.

Phakopsora pachyrhizi = assay: Example F: in vivo preventive test (soybeans), DMSO/acetone/Tween 80; settings: 288 h, 500 ppm of tested compound, preventive spray, soybean, evaluated 12 days after inoculation, read-out: efficacy
Procedure: Solvent: 5% by volume of dimethyl sulfoxide • 10% by volume of acetone
Emulsifier: 1 μL of Tween® 80 per mg of active ingredient
The tested compounds were made soluble and homogenized in a mixture of dimethyl sulfoxide/acetone/Tween® 80 and then diluted in water to the desired concentration.
The young plants of wheat were treated by spraying the tested compound prepared as described above. Control plants were treated only with an aqueous solution of acetone/dimethyl sulfoxide/Tween® 80.
After 24 hours, the plants were contaminated by spraying the leaves with an aqueous suspension of Phakospora pachyrhizi spores. The contaminated soybean plants were incubated for 24 hours at 24° C. and at 100% relative humidity and then for 11 days at 24° C. and at 70-80% relative humidity.
The test was evaluated 12 days after the inoculation. 0% means an efficacy which corresponds to that of the control plants while an efficacy of 100% means that no disease was observed.

[3] = method [a], HPLC on reversed phase columns, read-out: logP
[4] = log P determined according to method [a] (HPLC on reversed phase columns), read-out: logP

| SMILES | chromatographic logP [1, 3] | chromatographic logP [1, 4] | chromatographic logP ([1]; Method A: LC-UV, acidic range, 0.1% formic acid in water and acetonitrile, read-out: Log P) | pest or weed control at 500 µg/mL (Alternaria brassicae) | pest or weed control at 500 ppm (Botrytis cinerea) | inhibition of growth at 20 µg/mL [2] | pest or weed control at 500 µg/mL (Puccinia recondita) | pest or weed control at 500 µg/mL (Phakopsora pachyrhizi) |
| --- | --- | --- | --- | --- | --- | --- | --- | --- |
| CC(=O)Nc1ccc(-c2nnc(C(F)F)o2)cn1 [I.034, N-{5-[5-(difluoromethyl)-1,3,4-oxadiazol-2-yl]pyridin-2-yl}acetamide] |  |  |  |  | 80 to 89% |  |  |  |
| Nc1ccc(-c2nnc(C(F)F)o2)cn1 [I.030, 5-[5-(difluoromethyl)-1,3,4-oxadiazol-2-yl]pyridin-2-amine] |  |  |  |  | 80 to 89% |  |  |  |
| CC1(C(=O)Nc2ccc(-c3nnc(C(F)F)o3)cn2)CC1 [I.045, N-{5-[5-(difluoromethyl)-1,3,4-oxadiazol-2-yl]pyridin-2-yl}-1-methylcyclopropanecarboxamide] |  |  |  | 90 to 100% | 90 to 100% |  |  |  |
| FC(F)c1nnc(-c2cnc(Nc3ccccc3)nc2)o1 [I.076, 5-[5-(difluoromethyl)-1,3,4-oxadiazol-2-yl]-N-phenylpyrimidin-2-amine] |  |  |  | 90 to 100% | 90 to 100% |  |  |  |
| FC(F)c1nnc(-c2cnc(NC3(c4ccccn4)CCC3)nc2)o1 [I.137, 5-[5-(difluoromethyl)-1,3,4-oxadiazol-2-yl]-N-[1-(pyridin-2-yl)cyclobutyl]pyrimidin-2-amine] |  | 1.2 |  | 90 to 100% |  |  | 90 to 100% | 90 to 100% |
| Fc1cccc(F)c1C1(Nc2ncc(-c3nnc(C(F)F)o3)cn2)CCC1 [I.177, 5-[5-(difluoromethyl)-1,3,4-oxadiazol-2-yl]-N-[1-(2,6-difluorophenyl)cyclobutyl]pyrimidin-2-amine] | 3.5 |  |  | 80 to 89% |  | 90 to 100% | 90 to 100% | 90 to 100% |
| O=C(Cc1ccccc1)Nc1ccc(-c2nnc(C(F)F)o2)cn1 [I.050, N-{5-[5-(difluoromethyl)-1,3,4-oxadiazol-2-yl]pyridin-2-yl}-2-phenylacetamide] |  |  |  |  | 80 to 89% |  |  |  |
| Cc1ccc(C2(Nc3ncc(-c4nnc(C(F)F)o4)cn3)CC2)cc1 [I.133, 5-[5-(difluoromethyl)-1,3,4-oxadiazol-2-yl]-N-[1-(4-methylphenyl)cyclopropyl]pyrimidin-2-amine] |  | 3 |  | 70 to 79% |  |  | 90 to 100% | 90 to 100% |
| COc1ccccc1CN(OC)c1ncc(-c2nnc(C(F)F)o2)cn1 [I.161, N-{5-[5-(difluoromethyl)-1,3,4-oxadiazol-2-yl]pyrimidin-2-yl}-N-(2-methoxybenzyl)-O-methylhydroxylamine] |  | 2.97 |  |  | 70 to 79% |  |  |  |
| Fc1ccccc1Nc1ccc(-c2nnc(C(F)(F)Cl)o2)cn1 [I.053, 5-{5-[chloro(difluoro)methyl]-1,3,4-oxadiazol-2-yl}-N-(2-fluorophenyl)pyridin-2-amine] |  |  |  |  | 80 to 89% |  |  |  |
| Fc1ccc(-c2ncc(-c3nnc(C(F)F)o3)cn2)cc1 [I.077, 5-[5-(difluoromethyl)-1,3,4-oxadiazol-2-yl]-2-(4-fluorophenyl)pyrimidine] |  |  |  |  | 70 to 79% | 90 to 100% |  |  |
| COc1cccc(C2(Nc3ncc(-c4nnc(C(F)F)o4)cn3)CC2)c1 [I.156, 5-[5-(difluoromethyl)-1,3,4-oxadiazol-2-yl]-N-[1-(3-methoxyphenyl)cyclopropyl]pyrimidin-2-amine] |  | 2.62 |  | 90 to 100% |  |  | 90 to 100% | 90 to 100% |

Second part, led by results:

| chromatographic logP [1, 3] | chromatographic logP [1, 4] | chromatographic logP ([1]; Method A: LC-UV, acidic range, 0.1% formic acid in water and acetonitrile, read-out: Log P) | SMILES | pest or weed control at 500 µg/mL (Alternaria brassicae) | pest or weed control at 500 ppm (Botrytis cinerea) | inhibition of growth at 20 µg/mL [2] | pest or weed control at 500 µg/mL (Puccinia recondita) | pest or weed control at 500 µg/mL (Phakopsora pachyrhizi) |
| --- | --- | --- | --- | --- | --- | --- | --- | --- |
| 3.64 |  |  | FC(F)c1nnc(-c2cnc(NC3(C4(c5ccccc5)CC4)CC3)nc2)o1 [I.170, 5-[5-(difluoromethyl)-1,3,4-oxadiazol-2-yl]-N-[1′-phenyl[1,1′-bi(cyclopropyl)]-1-yl]pyrimidin-2-amine] | 90 to 100% | 70 to 79% |  |  |  |
|  | 3.25 |  | FC(F)c1nnc(-c2cnc(NCC3(c4ccccc4)CC3)nc2)o1 [I.135, 5-[5-(difluoromethyl)-1,3,4-oxadiazol-2-yl]-N-[(1-phenylcyclopropyl)methyl]pyrimidin-2-amine] | 90 to 100% | 70 to 79% | 80 to 89% |  |  |
|  | 2.62 |  | COc1ccc(C2(Nc3ncc(-c4nnc(C(F)F)o4)cn3)CC2)cc1 [I.157, 5-[5-(difluoromethyl)-1,3,4-oxadiazol-2-yl]-N-[1-(4-methoxyphenyl)cyclopropyl]pyrimidin-2-amine] | 70 to 79% |  | 80 to 89% | 90 to 100% | 90 to 100% |
|  |  | 3.26 | CC(C)(Nc1ncc(-c2nnc(C(F)F)o2)cn1)c1ccc(F)cc1 [I.150, 5-[5-(difluoromethyl)-1,3,4-oxadiazol-2-yl]-N-[2-(4-fluorophenyl)propan-2-yl]pyrimidin-2-amine] | 70 to 79% |  | 80 to 89% | 90 to 100% | 90 to 100% |
|  | 2.99 |  | Fc1ccccc1Nc1ncc(-c2nnc(C(F)(F)F)o2)cn1 [I.116, N-(2-fluorophenyl)-5-[5-(trifluoromethyl)-1,3,4-oxadiazol-2-yl]pyrimidin-2-amine] |  | 80 to 89% |  |  |  |
|  | 3.57 |  | FC(F)c1nnc(-c2cnc(NC3(c4ccccc4)CCCC3)nc2)o1 [I.153, 5-[5-(difluoromethyl)-1,3,4-oxadiazol-2-yl]-N-(1-phenylcyclopentyl)pyrimidin-2-amine] |  | 70 to 79% |  |  |  |
|  | 3.37 |  | FC(F)c1nnc(-c2cnc(Nc3ccccc3-c3ccccc3)nc2)o1 [I.166, N-([biphenyl]-2-yl)-5-[5-(difluoromethyl)-1,3,4-oxadiazol-2-yl]pyrimidin-2-amine] | 70 to 79% |  | 80 to 89% | 90 to 100% | 90 to 100% |
|  | 3.72 |  | CC(Sc1ncc(-c2nnc(C(F)F)o2)cn1)c1ccccc1 (racemic) [I.123, 5-[5-(difluoromethyl)-1,3,4-oxadiazol-2-yl]-2-{[(1RS)-1-phenylethyl]sulfanyl}pyrimidine] |  | 90 to 100% | 90 to 100% |  |  |
| 3.67 |  |  | FC(F)c1nnc(-c2cnc(NC3(c4cccc(Cl)c4)CCC3)nc2)o1 [I.175, N-[1-(3-chlorophenyl)cyclobutyl]-5-[5-(difluoromethyl)-1,3,4-oxadiazol-2-yl]pyrimidin-2-amine] | 70 to 79% |  | 80 to 89% | 90 to 100% |  |
|  | 2.77 |  | Fc1ccccc1Nc1ncc(-c2nnc(C(F)F)s2)cn1 [I.113, 5-[5-(difluoromethyl)-1,3,4-thiadiazol-2-yl]-N-(2-fluorophenyl)pyrimidin-2-amine] | 90 to 100% | 90 to 100% |  |  |  |
